Patent US20090105270A1, “Kinase inhibition and anticancer therapy” (priority 2007, published 2009)

Tests used:
ALK(h) = target: T1, ALK(h) (Homo sapiens, UniProt Q9UM73); assay: Upstate kinase activity inhibition assay ALK(h); format: biochemical; conditions: 40 min; read-out: percentage of enzyme activity that remains
T1 construct: purchased Upstate (KinaseProfiler service)

CDK2/cyclinA(h) = target: T2, CDK2/cyclinA(h) (Homo sapiens, UniProt P24941); assay: Upstate kinase activity inhibition assay CDK2/cyclinA(h); format: biochemical; conditions: 0.2 μM Compound E
T2 construct: purchased Upstate (KinaseProfiler service)

DYRK2(h) = target: T3, DYRK2(h) (Homo sapiens, UniProt Q92630); assay: Upstate kinase activity inhibition assay DYRK2(h); format: biochemical; conditions: 40 min; read-out: percentage of enzyme activity that remains
T3 construct: purchased Upstate (KinaseProfiler service)

EphA8(h) = target: T4, EphA8(h) (Homo sapiens, UniProt P29322); assay: Upstate kinase activity inhibition assay EphA8(h); format: biochemical; conditions: 40 min; read-out: percentage of enzyme activity that remains
T4 construct: purchased Upstate (KinaseProfiler service)

EphB4(h) = target: T5, EphB4(h) (Homo sapiens, UniProt P54760); assay: Upstate kinase activity inhibition assay EphB4(h); format: biochemical; conditions: 40 min; read-out: percentage of enzyme activity that remains
T5 construct: purchased Upstate (KinaseProfiler service)

NEK6(h) = target: T6, NEK6(h) (Homo sapiens, UniProt Q9HC98); assay: Upstate kinase activity inhibition assay NEK6(h); format: biochemical; conditions: 40 min; read-out: percentage of enzyme activity that remains
T6 construct: purchased Upstate (KinaseProfiler service)
T6 sequence (Q9HC98 whole entry): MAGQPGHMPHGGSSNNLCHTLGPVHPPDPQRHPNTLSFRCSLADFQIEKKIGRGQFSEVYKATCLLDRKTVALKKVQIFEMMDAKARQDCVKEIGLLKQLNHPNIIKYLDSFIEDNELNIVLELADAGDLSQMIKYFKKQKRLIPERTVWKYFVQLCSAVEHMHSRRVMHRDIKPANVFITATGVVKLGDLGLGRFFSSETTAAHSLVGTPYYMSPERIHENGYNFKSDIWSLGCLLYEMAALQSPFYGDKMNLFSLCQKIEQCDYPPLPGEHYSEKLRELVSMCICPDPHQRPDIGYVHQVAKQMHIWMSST

NEK7(h) = NEK7(h) (Homo sapiens, UniProt Q8TDX7); assay: Upstate kinase activity inhibition assay NEK7(h); format: biochemical; conditions: 40 min; read-out: percentage of enzyme activity that remains
PKCβII(h) = target: T7, PKCβII(h) (Homo sapiens, UniProt P05771); assay: Upstate kinase activity inhibition assay PKCβII(h); format: biochemical; conditions: 40 min; read-out: percentage of enzyme activity that remains
T7 construct: purchased Upstate (KinaseProfiler service)

PKCε(h) = target: T8, PKCε(h) (Homo sapiens, UniProt Q02156); assay: Upstate kinase activity inhibition assay PKCε(h); format: biochemical; conditions: 40 min; read-out: percentage of enzyme activity that remains
T8 construct: purchased Upstate (KinaseProfiler service)

PKCη(h) = target: T9, PKCη(h) (Homo sapiens, UniProt P24723); assay: Upstate kinase activity inhibition assay PKCη(h); format: biochemical; conditions: 40 min; read-out: percentage of enzyme activity that remains
T9 construct: purchased Upstate (KinaseProfiler service)
T9 sequence (P24723 whole entry): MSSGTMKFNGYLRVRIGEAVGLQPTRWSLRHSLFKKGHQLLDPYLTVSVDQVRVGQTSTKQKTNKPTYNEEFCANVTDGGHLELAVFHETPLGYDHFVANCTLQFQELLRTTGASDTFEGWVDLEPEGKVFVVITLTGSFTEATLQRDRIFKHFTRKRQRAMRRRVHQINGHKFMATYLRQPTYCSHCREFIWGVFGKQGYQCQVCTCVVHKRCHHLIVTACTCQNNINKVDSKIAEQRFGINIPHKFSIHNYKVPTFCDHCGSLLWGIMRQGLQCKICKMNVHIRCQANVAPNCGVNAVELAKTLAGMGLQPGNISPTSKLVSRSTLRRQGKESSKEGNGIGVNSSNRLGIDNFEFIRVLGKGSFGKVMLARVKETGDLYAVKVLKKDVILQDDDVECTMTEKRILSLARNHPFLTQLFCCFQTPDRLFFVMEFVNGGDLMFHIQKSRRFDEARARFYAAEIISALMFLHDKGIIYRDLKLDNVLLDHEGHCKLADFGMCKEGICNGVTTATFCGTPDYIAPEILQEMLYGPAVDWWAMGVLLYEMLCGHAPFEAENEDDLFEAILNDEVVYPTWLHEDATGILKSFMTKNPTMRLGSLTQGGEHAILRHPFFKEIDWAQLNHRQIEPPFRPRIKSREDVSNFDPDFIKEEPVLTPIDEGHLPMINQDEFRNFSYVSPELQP

PKG1β(h) = target: T10, PKG1β(h) (Homo sapiens, UniProt Q13976); assay: Upstate kinase activity inhibition assay PKG1β(h); format: biochemical; conditions: 40 min; read-out: percentage of enzyme activity that remains
T10 construct: purchased Upstate (KinaseProfiler service)
T10 sequence (Q13976 1-686 isoform Q13976-2): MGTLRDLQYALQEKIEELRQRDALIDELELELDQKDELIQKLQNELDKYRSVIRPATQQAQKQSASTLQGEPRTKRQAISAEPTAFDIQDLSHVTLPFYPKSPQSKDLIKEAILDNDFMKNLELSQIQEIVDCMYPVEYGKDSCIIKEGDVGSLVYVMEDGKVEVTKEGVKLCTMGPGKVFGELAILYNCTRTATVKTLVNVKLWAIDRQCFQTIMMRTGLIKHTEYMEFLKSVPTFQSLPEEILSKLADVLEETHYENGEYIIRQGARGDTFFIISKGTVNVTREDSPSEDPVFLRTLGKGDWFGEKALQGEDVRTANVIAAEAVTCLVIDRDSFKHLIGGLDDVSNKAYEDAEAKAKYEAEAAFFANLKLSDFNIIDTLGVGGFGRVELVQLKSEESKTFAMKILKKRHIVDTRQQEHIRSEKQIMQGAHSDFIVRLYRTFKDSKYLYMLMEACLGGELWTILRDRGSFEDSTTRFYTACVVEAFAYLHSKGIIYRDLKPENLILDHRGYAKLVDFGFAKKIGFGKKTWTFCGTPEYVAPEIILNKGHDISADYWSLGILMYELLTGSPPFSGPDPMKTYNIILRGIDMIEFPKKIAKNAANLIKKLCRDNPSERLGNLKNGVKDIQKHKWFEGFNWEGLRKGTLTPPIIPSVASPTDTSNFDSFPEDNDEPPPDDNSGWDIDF

TSSK2(h) = target: T11, TSSK2(h) (Homo sapiens, UniProt Q96PF2); assay: Upstate kinase activity inhibition assay TSSK2(h); format: biochemical; conditions: 40 min; read-out: percentage of enzyme activity that remains
T11 construct: purchased Upstate (KinaseProfiler service)

CK2(h) = CK2(h) (Homo sapiens, UniProt P68400); assay: Upstate kinase activity inhibition assay CK2(h); conditions: 40 min, read-out: percentage of enzyme activity that remains
ITK(h) = ITK(h) (Homo sapiens, UniProt Q08881); assay: Upstate kinase activity inhibition assay ITK(h); conditions: 4 μM Compound E
KDR(h) = KDR(h) (Homo sapiens, UniProt P35968); assay: Upstate kinase activity inhibition assay KDR(h); conditions: 40 min, read-out: percentage of enzyme activity that remains
LOK(h) = LOK(h) (Homo sapiens, UniProt O94804); assay: Upstate kinase activity inhibition assay LOK(h)
MLCK(h) = MLCK(h) (Homo sapiens, UniProt Q9H1R3); assay: Upstate kinase activity inhibition assay MLCK(h); conditions: 40 min, read-out: percentage of enzyme activity that remains
MLK1(h) = MLK1(h) (Homo sapiens, UniProt P80192); assay: Upstate kinase activity inhibition assay MLK1(h); conditions: 40 min, read-out: percentage of enzyme activity that remains
MSK2(h) = MSK2(h) (Homo sapiens, UniProt O75676); assay: Upstate kinase activity inhibition assay MSK2(h); conditions: 40 min, read-out: percentage of enzyme activity that remains
MST3(h) = MST3(h) (Homo sapiens, UniProt Q9Y6E0); assay: Upstate kinase activity inhibition assay MST3(h)
Chain of MST3(h) (Q9Y6E0 whole entry): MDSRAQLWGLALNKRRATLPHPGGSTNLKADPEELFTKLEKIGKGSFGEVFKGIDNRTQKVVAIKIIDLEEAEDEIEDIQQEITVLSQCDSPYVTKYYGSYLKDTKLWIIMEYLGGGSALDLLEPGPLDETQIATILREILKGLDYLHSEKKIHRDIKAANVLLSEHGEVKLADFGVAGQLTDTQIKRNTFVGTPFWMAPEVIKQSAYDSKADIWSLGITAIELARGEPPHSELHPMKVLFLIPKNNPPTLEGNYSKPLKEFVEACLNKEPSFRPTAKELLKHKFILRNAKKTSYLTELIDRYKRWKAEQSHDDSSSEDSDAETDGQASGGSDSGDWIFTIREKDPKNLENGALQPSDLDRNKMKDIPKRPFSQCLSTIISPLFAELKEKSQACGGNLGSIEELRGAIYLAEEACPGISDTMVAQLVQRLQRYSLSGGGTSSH

PKCα(h) = PKCα(h) (Homo sapiens, UniProt P17252); assay: Upstate kinase activity inhibition assay PKCα(h); conditions: 40 min, read-out: percentage of enzyme activity that remains
PKCζ(h) = PKCζ(h) (Homo sapiens, UniProt Q05513); assay: Upstate kinase activity inhibition assay PKCζ(h); conditions: 40 min, read-out: percentage of enzyme activity that remains
Plk3(h) = Plk3(h) (Homo sapiens, UniProt Q9H4B4); assay: Upstate kinase activity inhibition assay Plk3(h); conditions: 40 min, read-out: percentage of enzyme activity that remains
TrkA(h) = TrkA(h) (Homo sapiens, UniProt P04629); assay: Upstate kinase activity inhibition assay TrkA(h); conditions: 40 min, read-out: percentage of enzyme activity that remains
TrkB(h) = TrkB(h) (Homo sapiens, UniProt Q16620); assay: Upstate kinase activity inhibition assay TrkB(h); conditions: 40 min, read-out: percentage of enzyme activity that remains
DAPK1(h) = DAPK1(h) (Homo sapiens, UniProt P53355); assay: Upstate kinase activity inhibition assay DAPK1(h); conditions: 40 min, read-out: percentage of enzyme activity that remains
EphA4(h) = EphA4(h) (Homo sapiens, UniProt P54764); assay: Upstate kinase activity inhibition assay EphA4(h); conditions: 40 min, read-out: percentage of enzyme activity that remains
MSSK1(h) = MSSK1(h) (Homo sapiens, UniProt Q9UPE1); assay: Upstate kinase activity inhibition assay MSSK1(h); conditions: 40 min, read-out: percentage of enzyme activity that remains
Chain of MSSK1(h) (Q9UPE1 whole entry): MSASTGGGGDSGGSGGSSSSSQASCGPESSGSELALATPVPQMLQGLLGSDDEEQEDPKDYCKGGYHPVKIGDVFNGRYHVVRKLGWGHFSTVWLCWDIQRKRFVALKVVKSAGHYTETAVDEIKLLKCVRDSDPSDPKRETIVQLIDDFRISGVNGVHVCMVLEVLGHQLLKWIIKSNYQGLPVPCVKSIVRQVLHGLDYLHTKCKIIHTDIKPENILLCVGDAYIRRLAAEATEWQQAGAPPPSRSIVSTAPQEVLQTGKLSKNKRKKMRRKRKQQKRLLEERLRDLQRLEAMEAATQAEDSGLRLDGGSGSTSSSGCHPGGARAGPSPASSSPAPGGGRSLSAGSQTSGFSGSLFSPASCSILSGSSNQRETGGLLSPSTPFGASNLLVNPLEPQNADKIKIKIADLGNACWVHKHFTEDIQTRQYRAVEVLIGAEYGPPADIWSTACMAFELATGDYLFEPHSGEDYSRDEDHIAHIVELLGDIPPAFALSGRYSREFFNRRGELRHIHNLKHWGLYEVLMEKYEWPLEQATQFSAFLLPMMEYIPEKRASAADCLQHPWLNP

SAPK4(h) = SAPK4(h) (Homo sapiens, UniProt O15264); assay: Upstate kinase activity inhibition assay SAPK4(h); conditions: 40 min, read-out: percentage of enzyme activity that remains
PDGFRα(h) = PDGFRα(h) (Homo sapiens, UniProt P16234); assay: Upstate kinase activity inhibition assay PDGFRα(h); conditions: 40 min, read-out: percentage of enzyme activity that remains

T1 sequence (Q9UM73 19-1620): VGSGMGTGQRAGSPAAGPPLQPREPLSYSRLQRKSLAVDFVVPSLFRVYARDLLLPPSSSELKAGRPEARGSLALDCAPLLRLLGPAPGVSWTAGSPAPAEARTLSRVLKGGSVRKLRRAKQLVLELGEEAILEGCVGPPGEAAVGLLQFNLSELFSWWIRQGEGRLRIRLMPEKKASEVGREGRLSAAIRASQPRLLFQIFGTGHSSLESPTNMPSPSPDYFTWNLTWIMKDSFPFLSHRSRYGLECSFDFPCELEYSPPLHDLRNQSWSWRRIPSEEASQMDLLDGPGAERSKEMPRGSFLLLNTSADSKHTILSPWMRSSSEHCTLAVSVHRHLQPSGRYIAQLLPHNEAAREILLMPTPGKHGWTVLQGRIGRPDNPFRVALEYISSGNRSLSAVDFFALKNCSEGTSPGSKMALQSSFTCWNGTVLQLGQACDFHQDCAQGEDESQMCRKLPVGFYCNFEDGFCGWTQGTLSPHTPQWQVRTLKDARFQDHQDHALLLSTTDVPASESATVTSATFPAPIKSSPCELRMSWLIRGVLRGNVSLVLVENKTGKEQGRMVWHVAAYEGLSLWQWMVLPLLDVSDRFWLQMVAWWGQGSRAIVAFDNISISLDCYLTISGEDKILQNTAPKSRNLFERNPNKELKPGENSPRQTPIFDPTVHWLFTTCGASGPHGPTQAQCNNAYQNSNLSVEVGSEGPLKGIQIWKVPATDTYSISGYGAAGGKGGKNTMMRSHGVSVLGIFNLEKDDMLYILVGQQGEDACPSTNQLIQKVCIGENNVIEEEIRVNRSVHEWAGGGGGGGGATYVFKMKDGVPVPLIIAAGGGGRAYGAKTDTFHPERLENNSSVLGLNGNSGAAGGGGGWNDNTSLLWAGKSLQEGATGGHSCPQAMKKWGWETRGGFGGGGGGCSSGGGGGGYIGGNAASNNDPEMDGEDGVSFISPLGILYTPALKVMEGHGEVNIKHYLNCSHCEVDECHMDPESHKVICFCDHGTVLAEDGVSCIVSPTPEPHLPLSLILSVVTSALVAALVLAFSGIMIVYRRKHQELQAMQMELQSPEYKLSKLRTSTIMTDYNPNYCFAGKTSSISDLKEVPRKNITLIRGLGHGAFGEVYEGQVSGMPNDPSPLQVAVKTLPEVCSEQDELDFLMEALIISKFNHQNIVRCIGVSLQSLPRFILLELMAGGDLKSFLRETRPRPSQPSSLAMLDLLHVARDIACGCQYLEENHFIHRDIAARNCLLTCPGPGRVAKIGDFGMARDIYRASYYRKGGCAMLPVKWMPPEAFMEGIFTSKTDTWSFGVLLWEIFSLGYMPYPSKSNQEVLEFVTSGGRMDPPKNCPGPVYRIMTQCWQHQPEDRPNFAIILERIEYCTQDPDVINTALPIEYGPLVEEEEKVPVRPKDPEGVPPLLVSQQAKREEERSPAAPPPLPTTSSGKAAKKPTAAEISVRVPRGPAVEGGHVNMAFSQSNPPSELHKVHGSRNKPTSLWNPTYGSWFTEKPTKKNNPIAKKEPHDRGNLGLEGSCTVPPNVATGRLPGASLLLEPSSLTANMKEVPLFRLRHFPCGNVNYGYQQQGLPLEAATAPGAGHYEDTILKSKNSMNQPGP

Cc1cc(Nc2cc(N3CCN(C)CC3)nc(Sc3ccc(NC(=O)C4CC4)cc3)n2)n[nH]1 [Compound E, Cyclopropane carboxylic acid {4-[4-(4-methyl-piperazin-1-yl)-6-(5-methyl-2H-pyrazol-3-ylamino)-pyrimidin-2-ylsulphanyl]-phenyl}-amide]
remaining activity at 0.2 µM (ALK(h)): 70% | remaining activity at 4 µM (ALK(h)): 58% | percentage of enzyme activity that remains (CDK2/cyclinA(h)): 99% | remaining activity at 0.2 µM (DYRK2(h)): 100% | remaining activity at 4 µM (DYRK2(h)): 110% | remaining activity at 0.2 µM (EphA8(h)): 92% | remaining activity at 0.2 µM (EphB4(h)): 91% | remaining activity at 4 µM (EphB4(h)): 11% | remaining activity at 0.2 µM (NEK6(h)): 86% | remaining activity at 4 µM (NEK6(h)): 85% | remaining activity at 0.2 µM (NEK7(h)): 84% | remaining activity at 4 µM (NEK7(h)): 83% | remaining activity at 0.2 µM (PKCβII(h)): 99% | remaining activity at 4 µM (PKCβII(h)): 94% | remaining activity at 0.2 µM (PKCε(h)): 98% | remaining activity at 4 µM (PKCε(h)): 96% | remaining activity at 0.2 µM (PKCη(h)): 98% | remaining activity at 4 µM (PKCη(h)): 100% | remaining activity at 0.2 µM (PKG1β(h)): 87% | remaining activity at 4 µM (PKG1β(h)): 87% | remaining activity at 0.2 µM (TSSK2(h)): 0% | remaining activity at 4 µM (TSSK2(h)): 0% | remaining activity at 0.2 µM (CK2(h)): 100% | remaining activity at 4 µM (CK2(h)): 93% | percentage of enzyme activity that remains (ITK(h)): 12% | remaining activity at 0.2 µM (KDR(h)): 87% | remaining activity at 4 µM (KDR(h)): 20% | percentage of enzyme activity that remains (LOK(h); 0.2 μM Compound E): 92% | percentage of enzyme activity that remains (LOK(h); 4 μM Compound E): 37% | remaining activity at 0.2 µM (MLCK(h)): 95% | remaining activity at 4 µM (MLCK(h)): 88% | remaining activity at 0.2 µM (MLK1(h)): 54% | remaining activity at 4 µM (MLK1(h)): 9% | remaining activity at 0.2 µM (MSK2(h)): 117% | remaining activity at 4 µM (MSK2(h)): 97% | percentage of enzyme activity that remains (MST3(h); 0.2 μM Compound E): 97% | percentage of enzyme activity that remains (MST3(h); 4 μM Compound E): 140% | remaining activity at 0.2 µM (PKCα(h)): 115% | remaining activity at 4 µM (PKCα(h)): 105% | remaining activity at 0.2 µM (PKCζ(h)): 107% | remaining activity at 4 µM (PKCζ(h)): 97% | remaining activity at 0.2 µM (Plk3(h)): 107% | remaining activity at 4 µM (Plk3(h)): 105% | remaining activity at 0.2 µM (TrkA(h)): 98% | remaining activity at 4 µM (TrkA(h)): 8% | remaining activity at 0.2 µM (TrkB(h)): 71% | remaining activity at 4 µM (TrkB(h)): 1% | remaining activity at 0.2 µM (DAPK1(h)): 107% | remaining activity at 4 µM (DAPK1(h)): 100% | remaining activity at 0.2 µM (EphA4(h)): 103% | remaining activity at 4 µM (EphA4(h)): 61% | remaining activity at 0.2 µM (MSSK1(h)): 110% | remaining activity at 4 µM (MSSK1(h)): 108% | remaining activity at 0.2 µM (SAPK4(h)): 96% | remaining activity at 4 µM (SAPK4(h)): 92% | remaining activity at 0.2 µM (PDGFRα(h)): 87%
